# Measurements: patent publication US20190225651A1, “COMPOUNDS FOR INDUCING TISSUE FORMATION AND USES THEREOF” (HISTIDE AG, priority 2015, published 2019)
# Ends that are not written are not given here.
# System: osteoblast progenitors
# Experiment: Osteogenic differentiation of osteoblast progenitors on peptide-coated materials (Osteopontin staining, Runx2 Q-PCR)
# Assay type: cell-based
# Conditions: 48 hours on coated apatite ceramics or type-I collagen sponge
# Experimental: (§1) The cells were first fixed for 20 min with 4% paraformaldehyde/PBS at 4° C. After fixation, the cells were permeabilized in PBS containing 1% Triton X-100 for 15 min. Runx2, Osterix, Stro-1, Vinculin, Phalloidin, Osteopontin, Sox2, Sox9 antibodies were visualized by treating the cells with 1% (v/v) specific monoclonal antibodies for 1 hour at 37° C. Then the samples were incubated with Alexa Fluor® 568 or 647 (F(ab′)2 fragment of IgG(H+L)) during 30 min at room temperature. The cell nuclei were counterstained in 20 ng/mL DAPI for 10 min at room temperature.
# Total RNA was extracted by using the RNeasy total RNA kit (Qiagen®) according to the manufacturer's instructions. Purified total RNA was used as a template in order to make cDNA by a reverse transcription reaction (Gibco BrI®) with random primers (Invitrogen®). The cDNA was then used as a template for a real-time PCR amplification in the presence of SYBR green reagents (Bio-Rad®) by using a thermocycler (iCycler, Biorad®). Data were analyzed with the iCycler IQ™® software and compared by the ΔΔCt method. Briefly, the mean Ct value of the target gene was normalized to its averaged Ct values of the housekeeping gene (HPRT) to give a ΔCt value, which was then normalized to a control sample to obtain a ΔΔCt value. The results were obtained from two series of experiments performed in a triplicate.
# The effect of these GFR-binding compounds as defined herein (SEQ ID NO: 19 and 20) on the differentiation of osteoblast progenitors was evaluated. These osteoblast progenitors were seeded onto the apatite ceramics or on type-I collagen sponge that were both coated with osteogenic peptides. […] This was seen from Osteopentin immunofluorescence staining after cell fixation as described in the Methods section (FIG. 7).
# An increase in the Runx2 gene expression after 24 hours of culture (FIG. 8a) was observed by using Quantitative Real Time Polymerase Chain Reaction as described in the Methods section.
row,Substance,differentiation into mature osteoblasts
1,"SEQ ID NO: 20: osteogenic cyclic GFR-binding compound of the sequence listing; sequence not printed (GTPGPSAISTLYLGGGGGGG; also: cyclic, ring type and places not given here)",differentiated into mature osteoblasts

# Same assay, conditions: versus native type-I collagen sponge or native apatite ceramics
row,Substance,production of extracellular matrix proteins such as Osteopontin (OPN)
1,"SEQ ID NO: 20: osteogenic cyclic GFR-binding compound of the sequence listing; sequence not printed (GTPGPSAISTLYLGGGGGGG; also: cyclic, ring type and places not given here)",produced extensive amounts of extracellular matrix proteins such as Osteopontin (OPN)

# System: Hair Follicle Stem Cells
# Experiment: Loss of quiescence and activation of hair follicle stem cells (Sox2, BMP-6)
# Assay type: cell-based, Mouse
# Conditions: not given
# Experimental: Isolated Hair Follicle Stem Cells were cultured with and without GFR-binding compounds as defined herein (SEQ ID NO: 29 and 30). An increase in the Sox2 protein expression was observed illustrating the activation of these stem cells (FIG. 13a). In parallel, a decrease in the BMP-6 release in the cell culture medium was observed (FIG. 13b).
Substance,BMP-6 release in the cell culture medium,Sox2 protein expression
"SEQ ID NO: 29: cyclic GFR-binding compound activating hair follicle stem cells; sequence not printed (DENKNSSLSILFFDENKNGGGGGG; also: cyclic, ring type and places not given here)",decrease,increase
"SEQ ID NO: 30: cyclic GFR-binding compound activating hair follicle stem cells; sequence not printed (DENEKSSLSILFFDENEKGGGGGG; also: cyclic, ring type and places not given here)",decrease,increase

# System: hMSCs
# Experiment: Loss of stemness, STRO-1 immunostaining
# Assay type: cell-based, human
# Conditions: compound in solution in cell culture media
# Experimental: as §1
# For this type of quantification the freeware image analysis ImageJ® software was used. The raw image was first converted to an 8-bit file, and then the unsharp mask feature was used (settings 1:0.2) to remove the image background (rolling ball radius 10). After smoothing, the resulting image, which appears similar to the original photomicrograph but with minimal background, was then converted to a binary image by setting a threshold. Threshold values were determined empirically by selecting a setting, which gave the most accurate binary image for a subset of randomly selected photomicrographs. The cell area was determined by manual delineation on raw fluorescent images. Total contact area and mean contact area per cell were calculated by “analyse particules” in ImageJ®. A minimum of […] per condition were analyzed. Stro-1 expression was determined using this procedure.
# hMSCs were cultured on conventional cell culture plastic plates with and without the presence in the cell culture media of different GFR-binding compounds as defined hereins (SEQ ID NO: 39 to 45) in solution. […] This was probed by Stro-1 immunostaining after cell fixation as described in the Methods section. The quantification of Stro-1 positive contact numbers and areas was performed as described in the Methods section. A minimum of 30 cells per condition were analyzed. One should note that it is commonly admitted that the expression of STRO-1 in a cell is indicative of a cell that is in a substantially non-differentiated state and the decrease of its expression of at least about 20% is indicative of a cell that has started a processus of differentiation but which may not result in the differentiation of the cell. A decrease of more than 50% would be indicative of the presence of a significant shift towards a differentiated state. A decrease of more than 70% would be indicative of the presence of a very important shift towards a differentiated state. A sustained decrease (e.g. for at least 96 h) of more than 50% or 70% would be indicative of the presence of an even more important shift towards a differentiated state.
# Likewise, hMSCs were cultured on conventional cell culture plastic plates with and without the presence in the cell culture media of different GFR-binding compounds as defined herein (SEQ ID NO: 1581 to 1606) in solution. […] This strong decrease was also confirmed after 96 h.
row,Substance,STRO-1 Expression (%) after 48 h
1,"1581 (GGGGGGGGGDENEKVVNDEGLESVPEDLSSLSVLFFDENEKVV; also: cyclic, closure not given here) [compound 1581]",33%
2,"1582 (GGGGGGGGGDDSSNVIRVPSTSSVPTGQSAISTLYLDDSSNVI; also: cyclic, closure not given here) [compound 1582]",29%
3,"1583 (GGGGGGGGGDDSSNVIRVPSTSSAPTKMNAISMLYFDENEKVV; also: cyclic, closure not given here) [compound 1583]",34%
4,"1584 (GGGGGGGGGDENEKVVGIPEPSSAPVDLKPLSTLYVDENEKVV; also: cyclic, closure not given here) [compound 1584]",31%
5,"1585 (AAAAAAAAADENEKVVAASKASSVPQEEEPLPMVYYDAANNVV; also: cyclic, closure not given here) [compound 1585]",27%
6,"1586 (GGGGGGGGGDDSSNVIKIPKASSVPTGGSNITVQIMDDSSNVI; also: cyclic, closure not given here) [compound 1586]",31%
7,"1587 (AAAAAAAAADENEKVVAASKASSSRVELRSVKIAKVDDSSNVI; also: cyclic, closure not given here) [compound 1587]",33%
8,"1588 (GGGGGGGGGDENEKVVKIPKASSTQVRLRPVQIRKIDAANNVV; also: cyclic, closure not given here) [compound 1588]",30%
9,"1589 (GGGGGGGGGDDSSNVISTPPTSSSRVQLSAISMLYLDDSSNVI; also: cyclic, closure not given here) [compound 1589]",22%
10,"1590 (GGGGGGGGGDENEKVVRVPSTSSTQVKMSAISMLYLDENEKVV; also: cyclic, closure not given here) [compound 1590]",23%
11,"1591 (AAAAAAAAADAANNVVKIPKASSSRVRLSSLSTLFFDAANNVV; also: cyclic, closure not given here) [compound 1591]",21%
12,"1592 (GGGGGGGGGDDSSNVIAASKASSTPTDLNAISTLYFDDSSNVI; also: cyclic, closure not given here) [compound 1592]",30%
13,"1593 (GGGGGGGGGDENEKVVRVPSTSSTQVDLNAISVLYFDENEKVV; also: cyclic, closure not given here) [compound 1593]",32%
14,"1594 (AAAAAAAAADAANNVVGIPEPSSVSQELSATSMLYYDAANNVV; also: cyclic, closure not given here) [compound 1594]",31%
15,"1595 (GGGGGGGGGDDSSNVIGIPEPSSAPTRLEPISMLYLDENEKVV; also: cyclic, closure not given here) [compound 1595]",27%
16,"1596 (GGGGGGGGGDENEKVVKIPKASSVSQQLEPISTLYLDENEKVV; also: cyclic, closure not given here) [compound 1596]",19%
17,"1597 (GGGGGGGGGDENEKVVSTPPTSSVPTEVSPINTLYFDENEKVV; also: cyclic, closure not given here) [compound 1597]",38%
18,"1598 (AAAAAAAAADENEKVVKIPKASSVPTKMKPLSVLYVDDSSNVI; also: cyclic, closure not given here) [compound 1598]",37%
19,"1599 (GGGGGGGGGDDSSNVISTPPTSSVSQKMKPLSILYVDDSSNVI; also: cyclic, closure not given here) [compound 1599]",35%
20,"1600 (GGGGGGGGGFDNDENVVRVPSTSSVPEKMEPLTMLYYFDNDENVV; also: cyclic, closure not given here) [compound 1600]",29%
21,"1601 (GGGGGGGGGFDNDENVVSTPPTSSTPTKMSNITTQIMFDNDENVV; also: cyclic, closure not given here) [compound 1601]",41%
22,"1602 (AAAAAAAAADENEKVVRVPSTSSVPAEESNITVQIMDDSSNVI; also: cyclic, closure not given here) [compound 1602]",42%
23,"1603 (GGGGGGGGGFDNDENVVAASKASSVPQRLRSVKVAKVFDNDENVV; also: cyclic, closure not given here) [compound 1603]",34%
24,"1604 (AAAAAAAAADAANNVVKIPKASSTQVRLRSVKTAKVDAANNVV; also: cyclic, closure not given here) [compound 1604]",35%
25,"1605 (AAAAAAAAADENEKVVAASKASSVPEKMRPVQTRKIDDSSNVI; also: cyclic, closure not given here) [compound 1605]",30%
26,"1606 (GGGGGGGGGFDNDENVVGIPEPSSAPVDMRPVQIRKIFDNDENVV; also: cyclic, closure not given here) [compound 1606]",43%
